{"source": "PubChem BioAssay (NCI)", "assay_in_all_cases": "NCI tumour cell line growth inhibition, 48 h", "key": {"[1]": {"tested_on": "HCT-116 colon"}, "[2]": {"tested_on": "COLO 205 colon"}, "[3]": {"tested_on": "HS 578T breast"}, "[4]": {"tested_on": "BT-549 breast"}, "[5]": {"tested_on": "SK-MEL-28 melanoma"}, "[6]": {"tested_on": "786-0 renal"}, "[7]": {"tested_on": "K-562 leukemia"}, "[8]": {"tested_on": "SR leukemia"}}, "note": "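Results reflect a 48-hour exposure of cells in 96-well plates to compound at five concentrations. GI50 is the concentration that inhibits growth by half. TGI denotes the concentration required for complete inhibition of growth.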"}
{"smiles": "O=c1c2cc(F)ccc2sc2c(N3CCNCC3)nc3ccc(F)cc3c12", "values": [{"measurement": "GI50", "setting": "[1]", "result": 1.63, "unit": "µM"}, {"measurement": "TGI", "setting": "[1]", "result": 3.21, "unit": "µM"}, {"measurement": "GI50", "setting": "[2]", "result": 2.15, "unit": "µM"}, {"measurement": "TGI", "setting": "[2]", "result": 4.72, "unit": "µM"}, {"measurement": "GI50", "setting": "[3]", "result": 1.7, "unit": "µM"}, {"measurement": "TGI", "setting": "[3]", "result": 3.6, "unit": "µM"}, {"measurement": "GI50", "setting": "[4]", "result": 10.1, "unit": "µM"}, {"measurement": "TGI", "setting": "[4]", "result": 24.1, "unit": "µM"}, {"measurement": "GI50", "setting": "[5]", "result": 1740, "unit": "nM"}, {"measurement": "TGI", "setting": "[5]", "result": 3.17, "unit": "µM"}, {"measurement": "GI50", "setting": "[6]", "result": 1.49, "unit": "µM"}, {"measurement": "TGI", "setting": "[6]", "result": 2.98, "unit": "µM"}]}
{"smiles": "O=S(=O)(NCCNc1nccc(-c2c(-c3ccc(F)c(O)c3)nc3sccn23)n1)c1ccc(F)cc1", "values": [{"measurement": "GI50", "setting": "[2]", "result": 5.62, "unit": "µM"}, {"measurement": "TGI", "setting": "[2]", "result": 36.1, "unit": "µM"}, {"measurement": "GI50", "setting": "[3]", "result": 2.94, "unit": "µM"}, {"measurement": "TGI", "setting": "[3]", "result": 8.81, "unit": "µM"}, {"measurement": "GI50", "setting": "[7]", "result": 2.55, "unit": "µM"}, {"measurement": "TGI", "setting": "[7]", "result": "> 100", "unit": "µM"}, {"measurement": "GI50", "setting": "[8]", "result": 1.34, "unit": "µM"}, {"measurement": "TGI", "setting": "[8]", "result": "> 100", "unit": "µM"}, {"measurement": "GI50", "setting": "[4]", "result": 2.99, "unit": "µM"}, {"measurement": "TGI", "setting": "[4]", "result": 23.4, "unit": "µM"}, {"measurement": "GI50", "setting": "[5]", "result": 429, "unit": "nM"}, {"measurement": "TGI", "setting": "[5]", "result": 21.9, "unit": "µM"}, {"measurement": "GI50", "setting": "[6]", "result": 3.21, "unit": "µM"}, {"measurement": "TGI", "setting": "[6]", "result": "> 100", "unit": "µM"}]}
{"smiles": "Nc1ccccc1C#C/C=C\\C#Cc1ccc(OCCCNC(=O)c2cc3ccccc3[nH]2)cc1", "values": [{"measurement": "GI50", "setting": "[1]", "result": 12.4, "unit": "µM"}, {"measurement": "TGI", "setting": "[1]", "result": 40.6, "unit": "µM"}, {"measurement": "GI50", "setting": "[2]", "result": 9.12, "unit": "µM"}, {"measurement": "TGI", "setting": "[2]", "result": "> 100", "unit": "µM"}, {"measurement": "GI50", "setting": "[3]", "result": 15.1, "unit": "µM"}, {"measurement": "TGI", "setting": "[3]", "result": "> 100", "unit": "µM"}, {"measurement": "GI50", "setting": "[7]", "result": 16.1, "unit": "µM"}, {"measurement": "TGI", "setting": "[7]", "result": "> 100", "unit": "µM"}, {"measurement": "GI50", "setting": "[8]", "result": 23.3, "unit": "µM"}, {"measurement": "TGI", "setting": "[8]", "result": 99, "unit": "µM"}, {"measurement": "GI50", "setting": "[4]", "result": 9.23, "unit": "µM"}, {"measurement": "TGI", "setting": "[4]", "result": "> 100", "unit": "µM"}, {"measurement": "GI50", "setting": "[5]", "result": "> 100000", "unit": "nM"}, {"measurement": "TGI", "setting": "[5]", "result": "> 100", "unit": "µM"}, {"measurement": "GI50", "setting": "[6]", "result": 12.6, "unit": "µM"}, {"measurement": "TGI", "setting": "[6]", "result": 25.7, "unit": "µM"}]}
{"smiles": "COc1ccc(-c2cs/c(=N\\N=C\\c3ccc(O)cc3O)n2/N=C/c2ccc(O)cc2O)cc1", "values": [{"measurement": "GI50", "setting": "[1]", "result": 1.57, "unit": "µM"}, {"measurement": "TGI", "setting": "[1]", "result": 3.04, "unit": "µM"}, {"measurement": "GI50", "setting": "[2]", "result": 2.09, "unit": "µM"}, {"measurement": "TGI", "setting": "[2]", "result": 4.19, "unit": "µM"}, {"measurement": "GI50", "setting": "[3]", "result": 2.7, "unit": "µM"}, {"measurement": "TGI", "setting": "[3]", "result": 7.36, "unit": "µM"}, {"measurement": "GI50", "setting": "[7]", "result": 2.62, "unit": "µM"}, {"measurement": "TGI", "setting": "[7]", "result": "> 100", "unit": "µM"}, {"measurement": "GI50", "setting": "[8]", "result": 2.53, "unit": "µM"}, {"measurement": "TGI", "setting": "[8]", "result": "> 100", "unit": "µM"}, {"measurement": "GI50", "setting": "[4]", "result": 1.54, "unit": "µM"}, {"measurement": "TGI", "setting": "[4]", "result": 3.59, "unit": "µM"}, {"measurement": "GI50", "setting": "[5]", "result": 1880, "unit": "nM"}, {"measurement": "TGI", "setting": "[5]", "result": 4.15, "unit": "µM"}, {"measurement": "GI50", "setting": "[6]", "result": 2.16, "unit": "µM"}, {"measurement": "TGI", "setting": "[6]", "result": 4.93, "unit": "µM"}]}
{"smiles": "[C](#Cc1ccccc1)[Hg][C]#Cc1ccccc1", "values": [{"measurement": "GI50", "setting": "[1]", "result": 72.5, "unit": "µM"}, {"measurement": "TGI", "setting": "[1]", "result": "> 100", "unit": "µM"}, {"measurement": "GI50", "setting": "[2]", "result": 22.2, "unit": "µM"}, {"measurement": "TGI", "setting": "[2]", "result": 48, "unit": "µM"}, {"measurement": "GI50", "setting": "[3]", "result": "> 100", "unit": "µM"}, {"measurement": "TGI", "setting": "[3]", "result": "> 100", "unit": "µM"}, {"measurement": "GI50", "setting": "[7]", "result": 13.2, "unit": "µM"}, {"measurement": "TGI", "setting": "[7]", "result": "> 100", "unit": "µM"}, {"measurement": "GI50", "setting": "[8]", "result": 23.5, "unit": "µM"}, {"measurement": "TGI", "setting": "[8]", "result": "> 100", "unit": "µM"}, {"measurement": "GI50", "setting": "[4]", "result": 22.1, "unit": "µM"}, {"measurement": "TGI", "setting": "[4]", "result": 43.2, "unit": "µM"}, {"measurement": "GI50", "setting": "[5]", "result": 14700, "unit": "nM"}, {"measurement": "TGI", "setting": "[5]", "result": 36.2, "unit": "µM"}, {"measurement": "GI50", "setting": "[6]", "result": 30.6, "unit": "µM"}, {"measurement": "TGI", "setting": "[6]", "result": "> 100", "unit": "µM"}]}
{"smiles": "FC(F)(c1ccc2ncccc2c1)c1nnc2ccc(-c3ccncc3)nn12", "values": [{"measurement": "GI50", "setting": "[1]", "result": 95.8, "unit": "µM"}, {"measurement": "TGI", "setting": "[1]", "result": "> 100", "unit": "µM"}, {"measurement": "GI50", "setting": "[2]", "result": 91.1, "unit": "µM"}, {"measurement": "TGI", "setting": "[2]", "result": "> 100", "unit": "µM"}, {"measurement": "GI50", "setting": "[3]", "result": 22.3, "unit": "µM"}, {"measurement": "TGI", "setting": "[3]", "result": "> 100", "unit": "µM"}, {"measurement": "GI50", "setting": "[7]", "result": 52.7, "unit": "µM"}, {"measurement": "TGI", "setting": "[7]", "result": "> 100", "unit": "µM"}, {"measurement": "GI50", "setting": "[8]", "result": "> 100", "unit": "µM"}, {"measurement": "TGI", "setting": "[8]", "result": "> 100", "unit": "µM"}, {"measurement": "GI50", "setting": "[4]", "result": 53.7, "unit": "µM"}, {"measurement": "TGI", "setting": "[4]", "result": "> 100", "unit": "µM"}, {"measurement": "GI50", "setting": "[5]", "result": "> 100000", "unit": "nM"}, {"measurement": "TGI", "setting": "[5]", "result": "> 100", "unit": "µM"}, {"measurement": "GI50", "setting": "[6]", "result": 69.3, "unit": "µM"}, {"measurement": "TGI", "setting": "[6]", "result": "> 100", "unit": "µM"}]}
{"smiles": "CCOC(=O)Nc1nc2ccc(OC)cc2s1", "values": [{"measurement": "GI50", "setting": "[1]", "result": "> 100", "unit": "µM"}, {"measurement": "TGI", "setting": "[1]", "result": "> 100", "unit": "µM"}, {"measurement": "GI50", "setting": "[2]", "result": "> 100", "unit": "µM"}, {"measurement": "TGI", "setting": "[2]", "result": "> 100", "unit": "µM"}, {"measurement": "GI50", "setting": "[3]", "result": "> 100", "unit": "µM"}, {"measurement": "TGI", "setting": "[3]", "result": "> 100", "unit": "µM"}, {"measurement": "GI50", "setting": "[7]", "result": "> 100", "unit": "µM"}, {"measurement": "TGI", "setting": "[7]", "result": "> 100", "unit": "µM"}, {"measurement": "GI50", "setting": "[8]", "result": 8.14, "unit": "µM"}, {"measurement": "TGI", "setting": "[8]", "result": "> 100", "unit": "µM"}, {"measurement": "GI50", "setting": "[4]", "result": "> 100", "unit": "µM"}, {"measurement": "TGI", "setting": "[4]", "result": "> 100", "unit": "µM"}, {"measurement": "GI50", "setting": "[5]", "result": "> 100000", "unit": "nM"}, {"measurement": "TGI", "setting": "[5]", "result": "> 100", "unit": "µM"}, {"measurement": "GI50", "setting": "[6]", "result": "> 100", "unit": "µM"}, {"measurement": "TGI", "setting": "[6]", "result": "> 100", "unit": "µM"}]}
